Test results from the supplement of paper PMC9386025.

Experiments:
Test in all cases: drug sensitivity score (DSS) (DSS (dimensionless)); higher = more sensitive (stronger drug response)
FIMM-PDC1 = patient-derived ovarian cancer cells; details: genetic perturbation: none (patient-derived cell culture)
Summary of the method: (§1)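 Ovarian cancer cell lines, after at least three days of shRNA induction with 100 ng/ml doxycycline, and patient-derived cultures were plated at 1 000 – 1 500 cells per well into 384-well plates pre-loaded with drugs at five concentrations spanning a 10,000-fold range. Plates were then kept for three days at 37 °C and 5.0 % CO2. Viability was measured as CellTiter-Glo luminescence on a PHERAstar FS, and each drug's dose-response curve was reduced to a drug sensitivity score computed by a previously described method.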

FIMM-PDC2 = patient-derived ovarian cancer cells; details: genetic perturbation: none (patient-derived cell culture)
Summary of the method: as §1

FIMM-PDC3 = patient-derived ovarian cancer cells; details: genetic perturbation: none (patient-derived cell culture)
Summary of the method: as §1

FIMM-PDC4 = patient-derived ovarian cancer cells; details: genetic perturbation: none (patient-derived cell culture)
Summary of the method: as §1

FIMM-PDC5 = patient-derived ovarian cancer cells; details: genetic perturbation: none (patient-derived cell culture)
Summary of the method: as §1

FIMM-PDC6 = patient-derived ovarian cancer cells; details: genetic perturbation: none (patient-derived cell culture)
Summary of the method: as §1

FIMM-PDC7 = patient-derived ovarian cancer cells; details: genetic perturbation: none (patient-derived cell culture)
Summary of the method: as §1

JHOS2 = system: JHOS2
Summary of the method: as §1

Kuramochi = system: Kuramochi
Summary of the method: as §1

OVSAHO = system: OVSAHO
Summary of the method: as §1

[1] = genetic perturbation: DOX-induced PTK7 shRNA knockdown
[2] = genetic perturbation: DOX-induced control shRNA

CC(C)[C@@H](CS(=O)(=O)C(C)C)N1C(=O)[C@@](C)(CC(=O)O)C[C@H](c2cccc(Cl)c2)[C@H]1c1ccc(Cl)cc1 [AMG-232]
drug sensitivity score (FIMM-PDC1): < 0
drug sensitivity score (FIMM-PDC2): < 0
drug sensitivity score (FIMM-PDC3): < 0
drug sensitivity score (FIMM-PDC4): 7.1
drug sensitivity score (FIMM-PDC5): 20.3
drug sensitivity score (FIMM-PDC6): 14.2
drug sensitivity score (FIMM-PDC7): 15
drug sensitivity score (JHOS2; [1]): < 0
drug sensitivity score (JHOS2; [2]): < 0
drug sensitivity score (Kuramochi; [1]): < 0
drug sensitivity score (Kuramochi; [2]): < 0
drug sensitivity score (OVSAHO; [1]): < 0
drug sensitivity score (OVSAHO; [2]): < 0

CN[C@@H](C)C(=O)N[C@H]1CN(C(=O)CC(C)C)CC[C@H]2CC[C@@H](C(=O)NC(c3ccccc3)c3ccccc3)N2C1=O [AT-406]
drug sensitivity score (FIMM-PDC1): 7.9
drug sensitivity score (FIMM-PDC2): 10.5
drug sensitivity score (FIMM-PDC3): 10.8
drug sensitivity score (FIMM-PDC4): 0.9
drug sensitivity score (FIMM-PDC5): 1.5
drug sensitivity score (FIMM-PDC6): 5.3
drug sensitivity score (FIMM-PDC7): 0.6
drug sensitivity score (JHOS2; [1]): 16.5
drug sensitivity score (JHOS2; [2]): 10.2
drug sensitivity score (Kuramochi; [1]): 1.1
drug sensitivity score (Kuramochi; [2]): 0.3
drug sensitivity score (OVSAHO; [1]): 4.3
drug sensitivity score (OVSAHO; [2]): < 0

C=CCn1c(=O)c2cnc(Nc3ccc(N4CCN(C)CC4)cc3)nc2n1-c1cccc(C(C)(C)O)n1 [AZD1775]
drug sensitivity score (FIMM-PDC1): 21.6
drug sensitivity score (FIMM-PDC2): 12.9
drug sensitivity score (FIMM-PDC3): 17
drug sensitivity score (FIMM-PDC4): 10.4
drug sensitivity score (FIMM-PDC5): 19
drug sensitivity score (FIMM-PDC6): 4
drug sensitivity score (FIMM-PDC7): 8.8
drug sensitivity score (JHOS2; [1]): 8.6
drug sensitivity score (JHOS2; [2]): 8.3
drug sensitivity score (Kuramochi; [1]): 10.3
drug sensitivity score (Kuramochi; [2]): 9.9
drug sensitivity score (OVSAHO; [1]): 16.3
drug sensitivity score (OVSAHO; [2]): 9.6

C[C@@H]1COCCN1c1cc(C2([S@](C)(=N)=O)CC2)nc(-c2cc[nH]c3nccc2-3)n1 [AZD6738]
drug sensitivity score (FIMM-PDC1): 12.7
drug sensitivity score (FIMM-PDC2): 9.5
drug sensitivity score (FIMM-PDC3): 13
drug sensitivity score (FIMM-PDC4): 8.7
drug sensitivity score (FIMM-PDC5): 10.4
drug sensitivity score (FIMM-PDC6): 11
drug sensitivity score (FIMM-PDC7): 8.6
drug sensitivity score (JHOS2; [1]): 6
drug sensitivity score (JHOS2; [2]): 3.6
drug sensitivity score (Kuramochi; [1]): 6.5
drug sensitivity score (Kuramochi; [2]): 4.5
drug sensitivity score (OVSAHO; [1]): 6.2
drug sensitivity score (OVSAHO; [2]): 5.5

O=C1CCc2c(Oc3ccc4c(c3)[C@@H]3[C@H](O4)[C@H]3c3nc4cc(C(F)(F)F)ccc4[nH]3)ccnc2N1 [BGB-283]
drug sensitivity score (FIMM-PDC1): 1.05
drug sensitivity score (FIMM-PDC2): 3.4
drug sensitivity score (FIMM-PDC3): 4.1
drug sensitivity score (FIMM-PDC4): 7.7
drug sensitivity score (FIMM-PDC5): 10.4
drug sensitivity score (FIMM-PDC6): 7.3
drug sensitivity score (FIMM-PDC7): 5.8
drug sensitivity score (JHOS2; [1]): 1.8
drug sensitivity score (JHOS2; [2]): 6.4
drug sensitivity score (Kuramochi; [1]): 3.6
drug sensitivity score (Kuramochi; [2]): 1.7
drug sensitivity score (OVSAHO; [1]): 2.4
drug sensitivity score (OVSAHO; [2]): 4

CO[C@H]1CC[C@H](N2C(=O)CNc3ncc(-c4ccc(C(C)(C)O)nc4)nc32)CC1 [CC-223]
drug sensitivity score (FIMM-PDC1): 3.2
drug sensitivity score (FIMM-PDC2): 4.7
drug sensitivity score (FIMM-PDC3): 3.5
drug sensitivity score (FIMM-PDC4): 5.9
drug sensitivity score (FIMM-PDC5): 10.3
drug sensitivity score (FIMM-PDC6): 5.3
drug sensitivity score (FIMM-PDC7): 9.5
drug sensitivity score (JHOS2; [1]): 3.3
drug sensitivity score (JHOS2; [2]): 3.3
drug sensitivity score (Kuramochi; [1]): 5.1
drug sensitivity score (Kuramochi; [2]): 4.6
drug sensitivity score (OVSAHO; [1]): 6.6
drug sensitivity score (OVSAHO; [2]): 4.9

CC1(C)OCCn2c1nc1c(N3CCOCC3)nc(-c3cnc(N)nc3)nc12 [GDC-0084]
drug sensitivity score (FIMM-PDC1): 7.65
drug sensitivity score (FIMM-PDC2): 10.3
drug sensitivity score (FIMM-PDC3): 7.9
drug sensitivity score (FIMM-PDC4): 13.1
drug sensitivity score (FIMM-PDC5): 17
drug sensitivity score (FIMM-PDC6): 13.3
drug sensitivity score (FIMM-PDC7): 14.2
drug sensitivity score (JHOS2; [1]): 7
drug sensitivity score (JHOS2; [2]): 8.5
drug sensitivity score (Kuramochi; [1]): 10.2
drug sensitivity score (Kuramochi; [2]): 6.3
drug sensitivity score (OVSAHO; [1]): 10.2
drug sensitivity score (OVSAHO; [2]): 9.7

COc1cc2c(Nc3ccc(Cl)c(Cl)c3F)ncnc2cc1OC[C@@H]1C[C@@H]2CN(C)C[C@@H]2C1 [Tesevatinib]
drug sensitivity score (FIMM-PDC1): 2.25
drug sensitivity score (FIMM-PDC3): 13.6
drug sensitivity score (FIMM-PDC4): 19.2
drug sensitivity score (FIMM-PDC5): 23.9
drug sensitivity score (FIMM-PDC6): 16.4
drug sensitivity score (FIMM-PDC7): 11.5
drug sensitivity score (JHOS2; [1]): < 0
drug sensitivity score (JHOS2; [2]): 3.1
drug sensitivity score (Kuramochi; [1]): 1.35
drug sensitivity score (Kuramochi; [2]): 1
drug sensitivity score (OVSAHO; [1]): 0.5
drug sensitivity score (OVSAHO; [2]): 1.9

Nc1nc2[nH]cnc2c(=S)[nH]1 [Thioguanine]
drug sensitivity score (FIMM-PDC1): 5.75
drug sensitivity score (FIMM-PDC3): < 0
drug sensitivity score (FIMM-PDC4): 6.6
drug sensitivity score (FIMM-PDC5): 6.4
drug sensitivity score (FIMM-PDC6): 2.9
drug sensitivity score (FIMM-PDC7): 4.7
drug sensitivity score (JHOS2; [1]): 1.9
drug sensitivity score (JHOS2; [2]): 1
drug sensitivity score (Kuramochi; [1]): 9.75
drug sensitivity score (Kuramochi; [2]): 7
drug sensitivity score (OVSAHO; [1]): 4.9
drug sensitivity score (OVSAHO; [2]): 8.1

CC[C@@]1(O)C(=O)OCc2c1cc1n(c2=O)Cc2cc3c(CN(C)C)c(O)ccc3nc2-1 [Topotecan]
drug sensitivity score (FIMM-PDC1): 10.3
drug sensitivity score (FIMM-PDC3): 12.4
drug sensitivity score (FIMM-PDC4): 7.8
drug sensitivity score (FIMM-PDC5): 14.4
drug sensitivity score (FIMM-PDC6): 12.8
drug sensitivity score (FIMM-PDC7): 12.2
drug sensitivity score (JHOS2; [1]): 10.5
drug sensitivity score (JHOS2; [2]): 11.5
drug sensitivity score (Kuramochi; [1]): 6.85
drug sensitivity score (Kuramochi; [2]): 6.4
drug sensitivity score (OVSAHO; [1]): 8.7
drug sensitivity score (OVSAHO; [2]): 7.5

CC(C)C[C@@H](C(=O)N[C@H](C(=O)OC1CCCC1)c1ccccc1)[C@H](O)C(=O)NO [Tosedostat]
drug sensitivity score (FIMM-PDC1): 12.6
drug sensitivity score (FIMM-PDC3): 14.9
drug sensitivity score (FIMM-PDC4): 9.5
drug sensitivity score (FIMM-PDC5): 12.1
drug sensitivity score (FIMM-PDC6): 11.1
drug sensitivity score (FIMM-PDC7): 6.4
drug sensitivity score (JHOS2; [1]): 29.8
drug sensitivity score (JHOS2; [2]): 14.2
drug sensitivity score (Kuramochi; [1]): 0.75
drug sensitivity score (Kuramochi; [2]): 0.7
drug sensitivity score (OVSAHO; [1]): 3.1
drug sensitivity score (OVSAHO; [2]): 6.4

Cc1cc(Nc2cc(N3CCN(C)CC3)nc(Sc3ccc(NC(=O)C4CC4)cc3)n2)n[nH]1 [Tozasertib]
drug sensitivity score (FIMM-PDC1): 2.9
drug sensitivity score (FIMM-PDC3): 4.2
drug sensitivity score (FIMM-PDC4): 5.7
drug sensitivity score (FIMM-PDC5): 6.2
drug sensitivity score (FIMM-PDC6): 1.6
drug sensitivity score (FIMM-PDC7): 3.7
drug sensitivity score (JHOS2; [1]): 4.1
drug sensitivity score (JHOS2; [2]): 4.3
drug sensitivity score (Kuramochi; [1]): 4.2
drug sensitivity score (Kuramochi; [2]): 2.4
drug sensitivity score (OVSAHO; [1]): 3.9
drug sensitivity score (OVSAHO; [2]): 1.9

CC(=O)Nc1cccc(-n2c(=O)n(C3CC3)c(=O)c3c(Nc4ccc(I)cc4F)n(C)c(=O)c(C)c32)c1 [Trametinib]
drug sensitivity score (FIMM-PDC1): 0.75
drug sensitivity score (FIMM-PDC3): 4.8
drug sensitivity score (FIMM-PDC4): 13
drug sensitivity score (FIMM-PDC5): 17.2
drug sensitivity score (FIMM-PDC6): 10.3
drug sensitivity score (FIMM-PDC7): 9
drug sensitivity score (JHOS2; [1]): 1.6
drug sensitivity score (JHOS2; [2]): 12.5
drug sensitivity score (Kuramochi; [1]): 8.9
drug sensitivity score (Kuramochi; [2]): 4.5
drug sensitivity score (OVSAHO; [1]): 10.6
drug sensitivity score (OVSAHO; [2]): 7.3

Nc1cc(F)ccc1NC(=O)c1ccc(CNC(=O)/C=C/c2cccnc2)cc1 [Tucidinostat]
drug sensitivity score (FIMM-PDC1): 5.9
drug sensitivity score (FIMM-PDC3): 7.7
drug sensitivity score (FIMM-PDC4): 3.5
drug sensitivity score (FIMM-PDC5): 7.3
drug sensitivity score (FIMM-PDC6): 6.3
drug sensitivity score (FIMM-PDC7): 7.4
drug sensitivity score (JHOS2; [1]): 2
drug sensitivity score (JHOS2; [2]): 2.1
drug sensitivity score (Kuramochi; [1]): 6.65
drug sensitivity score (Kuramochi; [2]): 1.5
drug sensitivity score (OVSAHO; [1]): 6.5
drug sensitivity score (OVSAHO; [2]): 2.1

CN[C@@H]1C[C@H]2O[C@@](C)([C@@H]1OC)n1c3ccccc3c3c4c(c5c6ccccc6n2c5c31)C(=O)N[C@H]4O [UCN-01]
drug sensitivity score (FIMM-PDC1): 26.5
drug sensitivity score (FIMM-PDC3): 22.2
drug sensitivity score (FIMM-PDC4): 26.4
drug sensitivity score (FIMM-PDC5): 29.6
drug sensitivity score (FIMM-PDC6): 24
drug sensitivity score (FIMM-PDC7): 28.4
drug sensitivity score (JHOS2; [1]): 21.2
drug sensitivity score (JHOS2; [2]): 21.5
drug sensitivity score (Kuramochi; [1]): 12.3
drug sensitivity score (Kuramochi; [2]): 16.2
drug sensitivity score (OVSAHO; [1]): 24.7
drug sensitivity score (OVSAHO; [2]): 15.2
